Test systems include SNB-19; K562; RXF 393; NCI-H23; BT-549; HOP-62; TK-10; SW-620; EKVX; NCI-H226; CCRF-CEM; HOP-92; IGROV-1; 786-0; NCI-H522; A549; SNB-75; OVCAR-3; COLO 205; PC-3.
What all share (assay): NCI anticancer screen, dose series, 48 h

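The compound was tested at five concentrations on cells cultured in 96-well plates, with a 48-hour exposure period. At the GI50, growth is halved.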 Calls of active or inactive are those of the source. No stated cut-off is given here; in the data, active = GI50 up to about 1.1 µM and inactive = higher. Some results are limits rather than exact numbers.

On to `CNC(=O)N(C)C(=O)c1ccccc1C(=O)N(C)C(=O)NC`, for which the GI50 in the experiment with SNB-19, with K562, with RXF 393, in the experiment on NCI-H23, with BT-549 and in the experiment on HOP-62 was > 10 µM (inactive) in each case. The GI50 in the experiment on TK-10, in the experiment with SW-620, with EKVX, in the experiment on NCI-H226, in the experiment on CCRF-CEM and with HOP-92 was > 10 µM (inactive) each time. Besides, the GI50 with IGROV-1, in the experiment with 786-0, in the experiment on NCI-H522, in the experiment on A549, in the experiment on SNB-75 and with OVCAR-3 was > 10 µM (inactive) in each case. For the same molecule, the GI50 with COLO 205 and in the experiment on PC-3 was > 10 µM (inactive) in each case.

With `Cc1cc2ncn(C3CCCCO3)c2cc1C` (stereo not given), the GI50 with SNB-19 was > 100 µM (inactive); in the experiment on K562, > 100 µM (inactive); in the experiment with RXF 393, > 100 µM (inactive); in the experiment with NCI-H23, 50.2 µM (inactive); in the experiment with BT-549 it was > 100 µM (inactive); with HOP-62 it was > 100 µM (inactive). The GI50 in the experiment with TK-10, in the experiment with SW-620, in the experiment with EKVX, with NCI-H226, with CCRF-CEM and with HOP-92 was > 100 µM (inactive) throughout. The GI50 with IGROV-1, with 786-0, with NCI-H522, in the experiment with A549, in the experiment with SNB-75 and with OVCAR-3 was > 100 µM (inactive) throughout. The GI50 in the experiment on COLO 205 and with PC-3 was > 100 µM (inactive) throughout.

On to `c1ccc([P+](Cc2ccc(C[P+](c3ccccc3)(c3ccccc3)c3ccccc3)s2)(c2ccccc2)c2ccccc2)cc1`, for which the GI50 in the experiment on SNB-19, in the experiment on K562, in the experiment on RXF 393, with NCI-H23, in the experiment on BT-549 and with HOP-62 was > 100 µM (inactive) throughout. Moreover, the GI50 in the experiment with TK-10, in the experiment on SW-620, with EKVX, in the experiment on NCI-H226, in the experiment with CCRF-CEM and with HOP-92 was > 100 µM (inactive) in each case. The GI50 with IGROV-1, in the experiment with 786-0, with NCI-H522, with A549, in the experiment on SNB-75 and in the experiment with OVCAR-3 was > 100 µM (inactive) in each case. The GI50 with COLO 205 and in the experiment on PC-3 was > 100 µM (inactive) in each case.

As for `CC(=O)OCC1OC(OCCCOP(=S)(OCCC#N)OCC2OC(n3ccc(N)nc3=O)C(OC(=O)c3ccccc3)C2OC(=O)c2ccccc2)C(OC(C)=O)C(OC(C)=O)C1OC(C)=O` (stereo not given), the GI50 in the experiment on SNB-19 is > 100 µM (inactive); in the experiment with K562, > 100 µM (inactive); with RXF 393 it was > 100 µM (inactive); in the experiment with NCI-H23, > 100 µM (inactive); with BT-549, > 100 µM (inactive); with HOP-62, 43.5 µM (inactive). The GI50 in the experiment on TK-10, with SW-620, with EKVX, in the experiment with NCI-H226, with CCRF-CEM and in the experiment on HOP-92 was > 100 µM (inactive) throughout. Moreover, the GI50 with IGROV-1 is > 100 µM (inactive); in the experiment on 786-0, > 100 µM (inactive); with NCI-H522, > 100 µM (inactive); in the experiment on A549, > 100 µM (inactive); in the experiment with SNB-75, 75.5 µM (inactive); with OVCAR-3 it was > 100 µM (inactive). For the same molecule, the GI50 in the experiment with COLO 205 and in the experiment on PC-3 was > 100 µM (inactive) in each case.

Take `CCOC(=O)c1nc2c(nc1C(=O)OCC)C(=O)c1ccccc1C2=O`: the GI50 in the experiment on SNB-19 is 0.446 µM (active); in the experiment on K562 it was 0.348 µM (active); in the experiment with RXF 393 it was 0.649 µM (active); with NCI-H23, 0.31 µM (active); in the experiment with BT-549 it was 0.471 µM (active); with HOP-62 it was 0.618 µM (active). Moreover, the GI50 was 2.75 µM (inactive) in the experiment on TK-10; 0.881 µM (active) with SW-620; 1.38 µM (inactive) in the experiment on EKVX; 0.569 µM (active) in the experiment with NCI-H226; 0.601 µM (active) in the experiment on CCRF-CEM; 5.36 µM (inactive) in the experiment with HOP-92. The GI50 is 2.75 µM (inactive) in the experiment on IGROV-1; 0.839 µM (active) in the experiment with 786-0; 0.671 µM (active) with NCI-H522; 0.594 µM (active) in the experiment with A549; 0.479 µM (active) in the experiment with SNB-75; 0.37 µM (active) in the experiment with OVCAR-3. For the same molecule, the GI50 was 1.82 µM (inactive) with COLO 205 and 2.9 µM (inactive) with PC-3.

`CCCCCCCCC(=O)NCCN(CCN)C(=O)CCCCCCCC`: the GI50 with SNB-19 was 8.55 µM (inactive); in the experiment with K562, 2.18 µM (inactive); with RXF 393, 13.5 µM (inactive); in the experiment on NCI-H23 it was 17.3 µM (inactive); in the experiment with BT-549, 3.44 µM (inactive); in the experiment with HOP-62 it was 15.3 µM (inactive). Also, the GI50 is 14.6 µM (inactive) in the experiment with TK-10; 2.34 µM (inactive) with SW-620; 18.2 µM (inactive) with EKVX; 18.5 µM (inactive) with NCI-H226; 2.38 µM (inactive) in the experiment on CCRF-CEM; 14 µM (inactive) in the experiment with HOP-92. The GI50 in the experiment with IGROV-1 is 7.46 µM (inactive); in the experiment on 786-0 it was 4.9 µM (inactive); in the experiment on NCI-H522, 2.65 µM (inactive); in the experiment on A549, 13.1 µM (inactive); with SNB-75 it was 7 µM (inactive); in the experiment on OVCAR-3, 15.2 µM (inactive). The GI50 in the experiment with COLO 205 was 3.29 µM (inactive); in the experiment on PC-3, 10.7 µM (inactive).

For `CCOC(=O)NC(OC)(C(F)(F)F)C(F)(F)F`, the GI50 in the experiment with SNB-19, in the experiment with K562, in the experiment with RXF 393, with NCI-H23, with BT-549 and in the experiment with HOP-62 was > 100 µM (inactive) throughout. Besides, the GI50 in the experiment with TK-10, in the experiment with SW-620, with EKVX, with NCI-H226, in the experiment on CCRF-CEM and in the experiment on HOP-92 was > 100 µM (inactive) each time. The GI50 in the experiment with IGROV-1, in the experiment on 786-0, in the experiment with NCI-H522, in the experiment on A549, with SNB-75 and in the experiment on OVCAR-3 was > 100 µM (inactive) each time. The GI50 with COLO 205 and in the experiment with PC-3 was > 100 µM (inactive) in each case.

As for `CCC1(O)C(=O)OCc2c1cc1n(c2=O)Cc2cc3cc4c(cc3nc2-1)OCO4` (stereo not given), the GI50 in the experiment with SNB-19 was < 0.01 µM (active); with K562, 0.0142 µM (active); with RXF 393, < 0.01 µM (active); in the experiment on NCI-H23, < 0.01 µM (active); with BT-549, 0.0163 µM (active); with HOP-62 it was < 0.01 µM (active). Further, the GI50 in the experiment on TK-10 is 0.31 µM (active); in the experiment with SW-620, < 0.0115 µM (active); with EKVX, 0.0776 µM (active); in the experiment on NCI-H226, < 0.01 µM (active); in the experiment on CCRF-CEM, < 0.01 µM (active); in the experiment on HOP-92 it was 0.0191 µM (active). Moreover, the GI50 is 0.0276 µM (active) in the experiment with IGROV-1; < 0.01 µM (active) with 786-0; < 0.01 µM (active) in the experiment with NCI-H522; < 0.01 µM (active) in the experiment with A549; < 0.01 µM (active) in the experiment on SNB-75; 0.0466 µM (active) with OVCAR-3. Moreover, the results for the GI50 with COLO 205 and in the experiment with PC-3 were 0.0713 µM (active) and 0.204 µM (active), respectively.

Turning to `CC(=O)N1c2ccccc2Sc2cc(C(O)(C(F)(F)F)C(F)(F)F)ccc21`, the GI50 in the experiment on SNB-19, in the experiment with K562, in the experiment on RXF 393, with NCI-H23, with BT-549 and in the experiment on HOP-62 was > 10 µM (inactive) throughout. Further, the GI50 in the experiment on TK-10 is > 10 µM (inactive); in the experiment on SW-620, > 10 µM (inactive); in the experiment with EKVX, > 10 µM (inactive); in the experiment on NCI-H226 it was > 10 µM (inactive); in the experiment on CCRF-CEM, > 10 µM (inactive); in the experiment on HOP-92, 4.66 µM (inactive). Also, the GI50 with IGROV-1 was > 10 µM (inactive); in the experiment on 786-0, > 10 µM (inactive); in the experiment on NCI-H522, > 10 µM (inactive); in the experiment on A549 it was > 10 µM (inactive); with SNB-75, 9.59 µM (inactive); in the experiment on OVCAR-3, > 10 µM (inactive). Also, the GI50 in the experiment with COLO 205 and in the experiment on PC-3 was > 10 µM (inactive) in each case.

Regarding `C=C1C(=O)OC2C3OC(C)(CCC(O)C3COC(C)=O)CC(OC(=O)/C(=C/C)COC(C)=O)C12` (stereo not given), the GI50 with SNB-19 was 5.32 µM (inactive); in the experiment with K562, 0.0775 µM (active); in the experiment with RXF 393 it was 0.223 µM (active); in the experiment on NCI-H23, 1.02 µM (active); in the experiment on BT-549, 0.18 µM (active); with HOP-62 it was 3.08 µM (inactive). Also, the GI50 was 0.165 µM (active) with TK-10; 0.0807 µM (active) with SW-620; 0.424 µM (active) in the experiment on EKVX; 2.16 µM (inactive) in the experiment on NCI-H226; 0.0176 µM (active) with CCRF-CEM; 0.159 µM (active) with HOP-92. For the same molecule, the GI50 in the experiment with IGROV-1 was 0.738 µM (active); in the experiment on 786-0, 0.138 µM (active); in the experiment on NCI-H522 it was 0.0317 µM (active); with A549, 7.33 µM (inactive); in the experiment on SNB-75, 4.66 µM (inactive); with OVCAR-3 it was 0.212 µM (active). Moreover, the GI50 with COLO 205 was 0.082 µM (active); in the experiment on PC-3 it was 1.48 µM (inactive).

(Values after ChEMBL document CHEMBL1201862, “PubChem BioAssay data set” (2004).)
